Assay [1] addresses T1, human recombinant serotonin 5-HT2A receptor (Homo sapiens, UniProt P28223).
T1 construct: purchased PerkinElmer Life and Analytical Sciences, USA; host or cells: CHO-K1
Description: Binding affinity for serotonin 5-HT2A receptor ([3H]Ketanserin). Conditions: CHO-K1 expressed receptor, 1 nM [3H]Ketanserin. How it is done:
Receptor binding affinities of the compounds for serotonin receptors were measured by the method described in the literature [Park W K et al., Pharmacol Biochem Behav. 2005, 82(2), 361-372].
For serotonin 5-HT2A binding, an aliquot of human recombinant serotonin 5-HT2A receptor (PerkinElmer Life and Analytical Sciences, USA) expressed in CHO-K1 cells (5 ug/well) and 1 nM [^3H]Ketanserin (PerkinElmer) were used in the presence of mianserin (20 uM) as nonspecific. The reaction mixture was incubated for 60 min at 27 using 50 mM Tris-HCl (pH 7.4) buffer containing 4 mM CaCl2 and 0.1% ascorbic acid, and harvested through filtermate A glass fiber filter (Wallac, Finland) presoaked in 0.5% polyethyleneimine (PEI) by microbeta filtermate-96 harvester (PerkinElmer) to terminate the reaction, and then washed with ice cold 50 mM Tris-HCl buffer solution (pH 7.4). The filter was then covered with MeltiLex, sealed in a sample bag, dried in an oven. The radioactivity retained in the filter was finally counted using MicroBeta Plus (Wallac).
(§1) The binding affinity (IC50) of a compound for the receptor was calculated by computerized nonlinear regression analysis (GraphPad Prism Program, San Diego, USA) using 7-8 varied concentrations of the compound run in duplicate tubes.

Assay [2] concerns the target T2, human serotonin transporter (Homo sapiens, UniProt P31645).
T2 construct: purchased PerkinElmer; host or cells: HEK-293
Kind of assay: Binding affinity for serotonin transporter ([3H]Imipramine). The following applies: HEK-293 membranes, 2 nM [3H]Imipramine. The protocol:
For serotonin transporter binding assays, a reaction mixture with a final volume of 0.25 ml was prepared by mixing a test compound, human serotonin transporter membrane expressed in HEK-293 cells (PerkinElmer, 5 ug/well), [^3H]Imipramine (PerkinElmer, 2 nM) and 50 mM Tris-HCl (pH 7.4) buffer containing 120 mM NaCl and 5 mM KCl. The reaction mixture was incubated for 30 min at 27, and harvested through filtermate. A glass fiber filter presoaked in 0.5% PEI with ice cold 50 mM Tris-HCl buffer (pH 7.4) containing 0.9% NaCl.

Assay [3] addresses T3, human recombinant 5-HT2C receptor (Homo sapiens, UniProt P28335).
T3 construct: purchased PerkinElmer
T3 sequence (P28335 33-458): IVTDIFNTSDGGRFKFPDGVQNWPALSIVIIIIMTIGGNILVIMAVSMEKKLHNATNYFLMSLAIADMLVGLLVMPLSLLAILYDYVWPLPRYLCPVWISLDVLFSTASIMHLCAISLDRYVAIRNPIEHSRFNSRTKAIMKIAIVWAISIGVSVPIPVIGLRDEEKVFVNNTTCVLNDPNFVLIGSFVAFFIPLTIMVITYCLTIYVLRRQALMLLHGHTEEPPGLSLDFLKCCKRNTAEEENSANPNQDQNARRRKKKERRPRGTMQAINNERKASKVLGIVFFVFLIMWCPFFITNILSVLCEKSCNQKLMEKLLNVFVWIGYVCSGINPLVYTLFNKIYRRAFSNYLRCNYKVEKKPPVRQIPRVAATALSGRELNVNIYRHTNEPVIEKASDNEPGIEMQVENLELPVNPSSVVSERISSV
Description: Binding affinity for serotonin 5-HT2C receptor ([3H]Mesulergine). Conditions: CHO-K1 membranes, 1.3 nM [3H]Mesulergine. How it is done: Receptor binding affinities of the compounds for serotonin receptors were measured by the method described in the literature [Park W K et al., Pharmacol Biochem Behav.
as §1
Nonspecific binding was determined using 100 uM mianserin. The incubations were performed for 60 min at 27, and these were terminated by rapid filtration through filtermate. A glass fiber filter presoaked in 0.5% PEI.

Each structure is given as a SMILES string. Counter-ions that a name gives are not always drawn.

T2 sequence (P31645 whole entry): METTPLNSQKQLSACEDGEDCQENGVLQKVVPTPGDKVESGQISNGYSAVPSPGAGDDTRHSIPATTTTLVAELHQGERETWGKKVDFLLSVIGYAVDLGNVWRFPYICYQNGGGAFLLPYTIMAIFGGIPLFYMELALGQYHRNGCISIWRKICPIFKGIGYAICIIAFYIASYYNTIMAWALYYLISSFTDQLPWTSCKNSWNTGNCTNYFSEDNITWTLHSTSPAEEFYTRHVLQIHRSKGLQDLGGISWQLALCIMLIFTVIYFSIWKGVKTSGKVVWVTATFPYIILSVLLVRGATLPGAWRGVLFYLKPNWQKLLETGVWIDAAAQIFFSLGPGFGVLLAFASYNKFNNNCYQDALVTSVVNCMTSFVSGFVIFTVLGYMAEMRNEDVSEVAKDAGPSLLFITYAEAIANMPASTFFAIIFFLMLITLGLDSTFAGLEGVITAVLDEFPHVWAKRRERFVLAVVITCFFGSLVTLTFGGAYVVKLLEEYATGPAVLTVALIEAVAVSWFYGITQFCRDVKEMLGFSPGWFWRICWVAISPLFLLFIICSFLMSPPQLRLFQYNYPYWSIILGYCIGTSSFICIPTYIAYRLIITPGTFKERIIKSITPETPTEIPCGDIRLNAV
T1 sequence (P28223 whole entry): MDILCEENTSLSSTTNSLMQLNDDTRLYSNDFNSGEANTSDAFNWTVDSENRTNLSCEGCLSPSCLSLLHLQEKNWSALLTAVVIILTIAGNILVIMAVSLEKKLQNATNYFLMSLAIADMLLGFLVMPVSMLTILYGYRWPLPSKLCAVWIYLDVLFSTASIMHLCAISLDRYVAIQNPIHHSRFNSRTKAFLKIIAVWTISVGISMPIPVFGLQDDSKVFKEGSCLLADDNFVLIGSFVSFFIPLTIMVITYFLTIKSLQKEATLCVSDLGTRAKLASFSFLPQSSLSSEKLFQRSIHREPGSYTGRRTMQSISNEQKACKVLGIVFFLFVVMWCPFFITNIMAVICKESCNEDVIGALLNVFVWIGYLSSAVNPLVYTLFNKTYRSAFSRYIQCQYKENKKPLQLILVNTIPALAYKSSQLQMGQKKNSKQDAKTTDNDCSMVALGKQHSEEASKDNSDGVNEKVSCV

For the compound `CCCn1c(-c2ccc(Cl)cc2)cc(C(=O)NCCCN2CCN(c3cccc(C)c3C)CC2)c1C` [Example 65, 5-(4-chlorophenyl)-N-(3-(4-(2,3-dimethylphenyl)piperazin-1-yl)propyl)-2-methyl-1-propyl-1H-pyrrole-3-carboxamide hydrochloride], the IC50 in assay [1] is 192 nM; in assay [2], 131 nM; in assay [3], 26 nM.
For the compound `Cc1c(C(=O)NCCCN2CCN(c3cccc(Cl)c3Cl)CC2)cc(-c2ccccc2)n1CC1CCCCC1` [Example 22, 1-(cyclohexylmethyl)-N-(3-(4-(2,3-dichlorophenyl)piperazin-1-yl)propyl)-2-methyl-5-phenyl-1H-pyrrole-3-carboxamide], the IC50 was 4380 nM in assay [1], 412 nM in assay [2] and 1030 nM in assay [3].
`Cc1c(C(=O)NCCCN2CCN(c3cccc(Cl)c3)CC2)cc(-c2ccccc2)n1CC1CCCCC1` [Example 20, N-(3-(4-(3-chlorophenyl)piperazin-1-yl)propyl)-1-(cyclohexylmethyl)-2-methyl-5-phenyl-1H-pyrrole-3-carboxamide]: the IC50 in assay [1] was 1070 nM; in assay [2], 213 nM; in assay [3] it was 611 nM.
As to `CCCn1c(-c2ccccc2)cc(C(=O)NCCCN2CCN(c3cccc(OC)c3OC)CC2)c1C` [Example 159, N-(3-(4-(2,3-dimethoxyphenyl)piperazin-1-yl)propyl)-2-methyl-5-phenyl-1-propyl-1H-pyrrole-3-carboxamide], the IC50 turned out to be 874 nM in assay [1], 1980 nM in assay [2] and 977 nM in assay [3].
The like results for `Cc1[nH]c(-c2ccccc2)cc1C(=O)NCCCCN1CCN(c2cccc(Cl)c2Cl)CC1` [Example 41, N-(4-(4-(2,3-dichlorophenyl)piperazin-1-yl)butyl)-2-methyl-5-phenyl-1H-pyrrole-3-carboxamide hydrochloride] were, in that order, 13 nM, 21 nM and 14 nM.
The like results for `Cc1cccc(N2CCN(CCCNC(=O)c3cc(-c4ccccc4)n(Cc4ccccc4)c3C)CC2)c1C` [Example 18, 1-Benzyl-N-(3-(4-(2,3-dimethylphenyl)piperazin-1-yl)propyl)-2-methyl-5-phenyl-1H-pyrrole-3-carboxamide] were, in that order, 224 nM, 14.3 nM and 297 nM.
As to `Cc1c(C(=O)NCCCN2CCN(c3cccc(Cl)c3Cl)CC2)cc(C(C)(C)C)n1C` [Example 128, 5-tert-butyl-N-(3-(4-(2,3-dichlorophenyl)piperazin-1-yl)propyl)-1,2-dimethyl-1H-pyrrole-3-carboxamide], the IC50 came out at 163 nM in assay [1], 375 nM in assay [2] and 1020 nM in assay [3].
As for `CCCCc1cc(C(=O)NCCCN2CCN(c3cccc(Cl)c3Cl)CC2)c(C)n1C` [Example 138, 5-butyl-N-(3-(4-(2,3-dichlorophenyl)piperazin-1-yl)propyl)-1,2-dimethyl-1H-pyrrole-3-carboxamide], the IC50 in assay [1] stood at 134 nM; in assay [2] it was 334 nM; in assay [3] it was 268 nM.
In the case of `CCCn1c(-c2cccnc2)cc(C(=O)NCCCN2CCN(c3cccc(Cl)c3Cl)CC2)c1C` [Example 101, N-(3-(4-(2,3-dichlorophenyl)piperazin-1-yl)propyl)-2-methyl-1-propyl-5-(pyridin-3-yl)-1H-pyrrole-3-carboxamide], the IC50 was 46 nM in assay [1], 133 nM in assay [2] and 344 nM in assay [3].
In the case of `Cc1cccc(N2CCN(CCCCNC(=O)c3cc(-c4ccccc4)n(C)c3C)CC2)c1C` [Example 35, N-(4-(4-(2,3-dimethylphenyl)piperazin-1-yl)butyl)-1,2-dimethyl-5-phenyl-1H-pyrrole-3-carboxamide hydrochloride], the IC50 was 61 nM in assay [1], 149 nM in assay [2] and 61 nM in assay [3].

These data come from patent US8895558B2, “Arylpiperazine-containing pyrrole 3-carboxamide derivatives for treating depressive disorders” (Green Cross Corporation, priority 2008, dated 2014).
